US8957094B2, “Therapeutic agent or prophylactic agent for fibromyalgia” (Toray Industries, Inc., priority 2010, dated 2015)

What was measured:
[1] = tested on: mouse partial sciatic nerve ligation model; assay: Mouse partial sciatic nerve ligation model (Seltzer model), von Frey test (neuropathic pain); assay type: in vivo; parameters: von Frey Total Score of 1 Hour after Oral Administration (Mean ± S.E.), Test Compound-Administered Group: scale not given here; details: for von Frey Total Score of 1 Hour after Oral Administration (Mean ± S.E.), Test Compound-Administered Group: n = 5-6, 7 days after ligation; for Score Improvement %: 1 hour after administration, relative to vehicle and sham surgery groups
Experimental: Mouse models of partial sciatic nerve ligation were prepared according to Seltzer's method (Malmberg et al., Pain, 1998, vol. 76, p. 215-222). Male ICR mice of 5 weeks old were anesthetized with Sodium pentobarbital (70 mg/kg, i.p.), and thereafter, the sciatic nerve at the femoral region of the right hindlimb of each mouse was exposed, and the sciatic nerve was triply ligated tightly with silk suture of 8-0 (NATSUME SEISAKUSHO) under microscope so that only half thickness of the nerve was trapped in the ligature, which mice were used as a ligation group. The mice whose sciatic nerves were exposed but not ligated were used as a sham surgery group.
Evaluation of neuropathic pain (hereinafter “von Frey test”) was carried out as follows. Mice were conditioned for at least 1 hour in an acryl cage for measurement (NATSUME SEISAKUSHO) placed on a wire net. Thereafter, using a filament (North Coast Medical, Inc. CA, USA) which exerted a pressure of 0.16 g, the mice were subjected to mechanical tactile stimulus by applying the filament to the plantar surface of both hindpaws 3 times, each for 3 seconds, with an interval of 3 seconds.
Seven days after the sciatic nerve ligation, test compounds were orally administered to the mice. Prior to the oral administration of the test compounds, the von Frey test was carried out to split the animals of the ligation group into vehicle groups and test compound-administered groups so that the sums of the total scores of the groups were equalized. The mice of the sham surgery groups, the vehicle groups and the test compound-administered groups were subjected to the von Frey test 1 hour, 2 hours and 3 hours after oral administration of a vehicle or a test compound, and the obtained scores were used as an indicator of analgesic effect. As a vehicle of test compound solution or suspension, DMSO:Tween80:distilled water (1:1:8), 27% HP-β-CD or 0.5% MC was used.
For evaluation of drug efficacy, data were statistically processed by unpaired multigroup t test (adjusted by Dunnett), taking the vehicle group of each measurement time as a control.

[2] = tested on: fibromyalgia; details: reported, Abeles et al., Am J. Med., 2008; cited from earlier work
[3] = tested on: rat fibromyalgia model; assay: Effects on rat fibromyalgia model (acidic saline injection; allodynia by von Frey filaments); assay type: in vivo; details: compared with the vehicle group, Day 7, 1-3 h after dosing, p<0.05, FIG. 1
Experimental: In the experiments, 5 to 6 male SD rats of 6 to 7 weeks old were used for one experimental group. One hundred microliters of acidic physiological saline with pH of 4.0 was injected twice (taking the day when administration of acidic physiological saline started as Day 1, the administration was carried out once on Day 1 and once on Day 6) to gastrocnemius muscle of right hindlimb of each anesthetized rat to prepare a rat fibromyalgia model (Sluka et al., J. Pharmacol. Exp. Ther., 2002, vol. 302, p. 1146; Nagakura et al., Pain, 2009, vol. 146, p. 26; Sluka et al., Pain, 2009, vol. 146, p. 3), which was considered to reflect clinical symptoms of fibromyalgia based on their pharmacological characteristics and thus widely used in basic studies of fibromyalgia. In the same manner, physiological saline was administered to the control group.
For measurement of allodynia observed in a rat fibromyalgia model, a 50% withdrawal threshold (g) was determined using von Frey filaments in accordance with the method described in Chaplan et al., J. Neurosci. Methods, 1994, vol. 53, p. 55. On Day 7, allodynia was measured before oral administration of the test compound as Pre, and 1-, 2- and 3-hour after oral administration of the test compound. Rats which developed allodynia by receiving intramuscular injection of acidic physiological saline were used as a rat fibromyalgia model to evaluate the analgesic effect of the test compound. The term “rats which developed allodynia” herein means the rats showing a 50% withdrawal threshold (g) (the mean value of right and left hind paws) of 6 g or less. Pregabalin was used as a positive control.
Compound 3, which is included in Compound (I), was suspended in 0.5% methylcellulose solution (hereinafter “0.5% MC”) to a concentration of 5 mg/mL or 10 mg/mL, and orally administered at an administration volume of 1 mL per 1 kg body weight. Pregabalin was suspended in 0.5% MC to a concentration of 10 mg/mL, and orally administered at an administration volume of 1 mL per 1 kg body weight. The vehicle group received oral administration of 0.5% MC. […]

Structure (SMILES): COc1ccc(-n2nc(C3(O)CCC(O)CC3)cc2-c2ccc(C)cc2)cc1F (stereo not shown) [Compound 54]
- von Frey Total Score of 1 Hour after Oral Administration (Mean ± S.E.), Test Compound-Administered Group ([1]; dose 10 mg/kg oral): 1.2 ± 0.6

Structure (SMILES): COc1ccc(-n2nc(C3(O)CCC(O)CC3)cc2-c2ccc(C)c(F)c2)cc1 (stereo not shown) [Compound 55]
- von Frey Total Score of 1 Hour after Oral Administration (Mean ± S.E.), Test Compound-Administered Group ([1]; dose 3 mg/kg oral): 0.7 ± 0.5

Structure (SMILES): COc1ccc(-n2nc(C3(O)CCC(O)(C(F)(F)F)CC3)cc2-c2ccc(C)cc2)cc1 (stereo not drawn) [Compound 10, 1-(1-(4-methoxyphenyl)-5-(p-tolyl)-1H-pyrazol-3-yl)-4-(trifluoromethyl)cyclohexan-cis-1,4-diol]
- von Frey Total Score of 1 Hour after Oral Administration (Mean ± S.E.), Test Compound-Administered Group ([1]; dose 1 mg/kg oral): 1.5 ± 0.5

Structure (SMILES): COc1ccc2cc([C@H](C)C(=O)O)ccc2c1 [naproxen]
- analgesic effect in treating fibromyalgia [2]: any statistically significant analgesic effect is not observed

Structure (SMILES): COc1ccc(-c2cc(C3(O)CCC(O)CC3)nn2-c2ccc(OC)cc2)cc1 (stereo not drawn) [Compound 8, 1-(1,5-bis(4-methoxyphenyl)-1H-pyrazol-3-yl)cyclohexan-cis-1,4-diol]
- von Frey Total Score of 1 Hour after Oral Administration (Mean ± S.E.), Test Compound-Administered Group ([1]; dose 10 mg/kg oral): 2.2 ± 0.5

Structure (SMILES): CC(C)C[C@H](CN)CC(=O)O [pregabalin, reference compound]
- allodynia observed in the rat fibromyalgia model (50% withdrawal threshold) ([3]; oral administration 10 mg/kg): significantly improved allodynia

Structure (SMILES): COc1ccc(-n2nc(C3(O)CCC(O)CC3)c(Cl)c2-c2ccc(C)cc2)cc1 (stereo not drawn) [Compound 9, 1-(4-chloro-1-(4-methoxyphenyl)-5-(p-tolyl)-1H-pyrazol-3-yl)cyclohexan-cis-1,4-diol]
- von Frey Total Score of 1 Hour after Oral Administration (Mean ± S.E.), Test Compound-Administered Group ([1]; dose 10 mg/kg oral): 1.7 ± 0.6

Structure (SMILES): COc1ccc(-n2nc(C3(O)CCC(O)CC3)cc2-c2ccc(C)cc2)cc1 (single isomer, unassigned) [Compound 3, 1-(1-(4-methoxyphenyl)-5-(p-tolyl)-1H-pyrazol-3-yl)cyclohexan-cis-1,4-diol]
- Score Improvement % ([1]; dose 0.3 mg/kg oral, 0.3 mg/kg): 83%
- von Frey Total Score of 1 Hour after Oral Administration (Mean ± S.E.), Test Compound-Administered Group ([1]; dose 0.3 mg/kg oral, 0.3 mg/kg): 1.2 ± 0.8
- allodynia observed in the rat fibromyalgia model (50% withdrawal threshold) ([3]; oral administration 5 mg/kg): significantly improved allodynia
- allodynia observed in the rat fibromyalgia model (50% withdrawal threshold) ([3]; oral administration 10 mg/kg): significantly improved allodynia

Structure (SMILES): COc1ccc(-n2nc(C3(O)CCC(C(=O)O)CC3)cc2-c2ccc(C)cc2)cc1 (stereo not drawn) [Compound 16, 4-hydroxy-4-(1-(4-methoxyphenyl)-5-(p-tolyl)-1H-pyrazol-3-yl)-cis-cyclohexanecarboxylic acid]
- von Frey Total Score of 1 Hour after Oral Administration (Mean ± S.E.), Test Compound-Administered Group ([1]; dose 1 mg/kg oral): 2.3 ± 0.5

Structure (SMILES): COc1ccc(-n2nc(C3(O)CCC(O)CC3)cc2-c2ccc(C)cc2)cc1 (single isomer, unassigned) [Compound 2, 1-(1-(4-methoxyphenyl)-5-(p-tolyl)-1H-pyrazol-3-yl)cyclohexan-trans-1,4-diol]
- Score Improvement % ([1]; dose 0.3 mg/kg oral, 0.3 mg/kg): 104%
- von Frey Total Score of 1 Hour after Oral Administration (Mean ± S.E.), Test Compound-Administered Group ([1]; dose 0.3 mg/kg oral, 0.3 mg/kg): 0.8 ± 0.5

Structure (SMILES): COc1ccc(-c2nc(C3(O)CCC(O)CC3)oc2-c2ccc(OC)cc2)cc1 (stereo not drawn) [Compound 43, 4-(4,5-bis(4-methoxyphenyl)oxazol-2-yl)cyclohexan-cis-1,4-diol]
- von Frey Total Score of 1 Hour after Oral Administration (Mean ± S.E.), Test Compound-Administered Group ([1]; dose 10 mg/kg oral): 0.8 ± 0.7

Structure (SMILES): CC(C)Cc1ccc(C(C)C(=O)O)cc1 (stereo not shown) [ibuprofen]
- analgesic effect in treating fibromyalgia [2]: any statistically significant analgesic effect is not observed
